Our source for the IC50 values is US20220315621A1, “COMPOSITIONS AND METHODS FOR TREATING CNS DISORDERS” (priority 2017, published 2022).

Each structure is given as a SMILES string. pIC50: −log10 of the molar value. Like-named read-outs stand apart in the source and are kept apart here.

In this assay the target is GABAA receptor (rat brain cortical membranes, [35S]-TBPS binding).
The mark [1] stands for this setting: Table I-4, rat brain cortical membranes, 3 nM [35S]-TBPS, in the presence of 5 mM GABA.
Where [2] appears, read: Table I-6, rat brain cortical membranes, 3 nM [35S]-TBPS, in the presence of 5 mM GABA.

In the case of `C[C@@]1(O)CC[C@H]2[C@H](CC[C@@H]3[C@@H]2CC[C@]2(C)[C@H](Nc4cccc(C#N)c4)CCC[C@@H]32)C1` [Compound I-10a, 3-(((1R,4aS,4bR,6aR,8R,10aS,10bR,12aS)-8-hydroxy-8,12a-dimethyloctadecahydrochrysen-1-yl)amino)benzonitrile], the negative-log IC50 (pIC50) under setting [1] is 6.00 to 7.00. Same read-out and setting: next, `CC(=O)[C@H]1CC[C@H]2[C@@H]3CC[C@@H]4C[C@](C)(O)CC[C@@H]4[C@H]3CC[C@]2(C)C1` [I-R14, 1-((2S,4aS,4bR,6aR,8R,10aS,10bR,12aR)-8-hydroxy-8,12a-dimethyloctadecahydrochrysen-2-yl)ethan-1-one]: 6.00 to 7.00.

Turning to `C[C@@]1(O)CC[C@H]2[C@H](CC[C@@H]3[C@@H]2CC[C@]2(C)[C@@H](CO)CCCC[C@@H]32)C1` [I-BA5b, (2R,4aS,4bR,6aS,7S,11aS,11bR,13aR)-7-(hydroxymethyl)-2,6a-dimethyloctadecahydro-1H-cyclohepta[a]phenanthren-2-ol], under setting [2], the pIC50 was 6.00 to 7.00. Consider `C[C@@]1(O)CC[C@H]2[C@H](CC[C@@H]3[C@@H]2CC[C@]2(C)[C@H](CO)CCCC[C@@H]32)C1` [I-BA5a, (2R,4aS,4bR,6aS,7R,11aS,11bR,13aR)-7-(hydroxymethyl)-2,6a-dimethyloctadecahydro-1H-cyclohepta[a]phenanthren-2-ol], for which the pIC50 under setting [2] was 5.00 to 6.00. Take `C[C@@]1(O)CC[C@H]2[C@H](CC[C@@H]3[C@@H]2CC[C@]2(C)[C@H](CO)C[C@@H]32)C1` [I-AB1a, (1R,2aS,2bR,4aR,6R,8aS,8bR,10aS)-1-(hydroxymethyl)-6,10a-dimethylhexadecahydrocyclobuta[a]phenanthren-6-ol]: the pIC50 (Table I-5, rat brain cortical membranes, 3 nM [35S]-TBPS, in the presence of 5 mM GABA) is 5.00 to 6.00. `C[C@@]1(O)CC[C@H]2[C@H](CC[C@@H]3[C@@H]2CC[C@]2(C)[C@@H](C(=O)NCc4ccccn4)CCC[C@@H]32)C1` [Compound I-17, (1S,4aS,4bR,6aR,8R,10aS,10bR,12aS)-8-hydroxy-8,12a-dimethyl-N-(pyridin-2-ylmethyl)octadecahydrochrysene-1-carboxamide]: the pIC50 under setting [1] was 7.00 to 8.00. Turning to `C[C@@]1(O)CC[C@H]2[C@H](CC[C@@H]3[C@@H]2CC[C@]2(C)[C@@H](Nc4ccc(Cl)cc4)CCC[C@@H]32)C1` [Compound I-8, (2R,4aS,4bR,6aS,7S,10aS,10bR,12aR)-7-((4-chlorophenyl)amino)-2,6a-dimethyloctadecahydrochrysen-2-ol], the pIC50 under setting [1] was 7.00 to 8.00. Same read-out and setting: the value for `C[C@@]1(O)CC[C@H]2[C@H](CC[C@@H]3[C@@H]2CC[C@]2(C)[C@@H](CO)CCC[C@@H]32)C1` [I-A3, (2R,4aS,4bR,6aS,7S,10aS,10bR,12aR)-7-(hydroxymethyl)-2,6a-dimethyloctadecahydrochrysen-2-ol] was 6.00 to 7.00. On to `CCOC[C@@]1(O)CC[C@H]2[C@@H](CC[C@@H]3[C@@H]2CC[C@]2(C)[C@@H](C(=O)Nc4ccccc4)CCC[C@@H]32)C1` [I-B11, (1S,4aS,4bR,6aS,8R,10aS,10bR,12aS)-8-(ethoxymethyl)-8-hydroxy-12a-methyl-N-phenyloctadecahydrochrysene-1-carboxamide], for which the pIC50 is 7.00 to 8.00. With `COC[C@@]1(O)CC[C@H]2[C@@H](CC[C@@H]3[C@@H]2CC[C@]2(C)[C@@H](Nc4ccc(F)cc4)CCC[C@@H]32)C1` [Compound I-23, (2R,4aS,4bR,6aS,7S,10aS,10bR,12aS)-7-((4-fluorophenyl)amino)-2-(methoxymethyl)-6a-methyloctadecahydrochrysen-2-ol], the pIC50 under setting [1] was 7.00 to 8.00. Turning to `C[C@@]1(O)CC[C@H]2[C@H](CC[C@@H]3[C@@H]2CC[C@]2(C)C[C@H](C(=O)Cn4cc(C#N)cn4)CCC[C@@H]32)C1` [I-BC16a, 1-(2-((2R,4aS,4bR,6aR,8R,11aS,11bR,13aR)-2-hydroxy-2,6a-dimethyloctadecahydro-1H-cyclohepta[a]phenanthren-8-yl)-2-oxoethyl)-1H-pyrazole-4-carbonitrile], the negative-log IC50 (pIC50) under setting [2] is 6.00 to 7.00.

A word on the pIC50: it is the negative decadic logarithm of the IC50, by convention in mol/L.
